# Assay results reported in patent publication US8916702B2 (priority 2012, dated 2014).
# Test system: HCV pseudoparticles (genotype 1a HCV E1 and E2 envelope, H77C isolate)
# Experiment: microbe, parasite or virus in culture
# Type: cell-based
# Conditions: Hepatitis C virus, Huh-7, 48 h, HCV pseudoparticle infection of Huh7 cells, luciferase 2 days after infection; average of duplicates
row,SMILES,EC50
1,COC(=O)[C@@H](CCNC(=O)C(=O)NCC1(c2ccccc2)CC1)NC(=O)c1ccc(Nc2nc(NC3(c4ccc(Cl)cc4)CC3)nc(OCC(F)(F)F)n2)cc1 [Compound 1378],0.23 nM
2,COC(=O)[C@H](CNC(=O)C(=O)NC1(CC(C)C)CC1)NC(=O)c1ccc(Nc2nc(NC3(c4ccc(Cl)cc4)CC3)nc(OCC(F)(F)F)n2)cc1 [Compound 1058],1.15 nM
3,COC(=O)[C@H](CNC(=O)C(=O)Nc1cc[nH]n1)NC(=O)c1ccc(Nc2nc(NC3(c4ccc(Cl)cc4)CC3)nc(OCC(F)(F)F)n2)cc1 [Compound 1245],1.69 nM

# Same assay, conditions: Hepatitis C virus, Huh-7, 48 h, HCV pseudoparticles (genotype 1a, H77C) in Huh7 cells; average of duplicate; luciferase 2 days after infection
row,SMILES,EC50
1,O=C(NCC[C@H](NC(=O)c1ccc(Nc2nc(NC3(c4ccc(Cl)cc4)CC3)nc(OCC(F)(F)F)n2)cc1)C(=O)O)C(=O)Nc1ccc(-n2cnc(Cl)c2Cl)cc1 [Compound 3225],17 nM
2,O=C(NCC(O)CNC(=O)c1ccc(Nc2nc(NC3(c4ccc(Cl)cc4)CC3)nc(OCC(F)(F)F)n2)cc1)C(=O)Nc1ccccc1 (centres unmarked) [Compound 3460],0.016 nM
3,Cc1cc(NC(=O)C(=O)NCC(C)CNC(=O)c2ccc(Nc3nc(NC4(c5ccc(Cl)cc5)CC4)nc(OCC(F)(F)F)n3)cc2)no1 (centres unmarked) [Compound 3334],0.062 nM
4,CN(CCCN(C)C(=O)c1ccc(Nc2nc(NC3(c4ccc(Cl)cc4)CC3)nc(OCC(F)(F)F)n2)cc1)C(=O)C(=O)Nc1nccs1 [Compound 3430],1.45 nM

# Same assay, conditions: Hepatitis C virus, Huh-7, 48 h, HCV pseudoparticles, Huh7 cells, luciferase 2 days after infection; average of duplicates
row,SMILES,EC50
1,Cn1nnnc1-c1cccc(NC(=O)C(=O)NC[C@H](NC(=O)c2ccc(Nc3nc(NC4(c5ccc(Cl)cc5)CC4)nc(OCC(F)(F)F)n3)cc2)C(=O)Cl)c1 [Compound 3786],0.55 nM

# Same assay, conditions: Hepatitis C virus, Huh-7, 48 h, read-out: Activity (EC50 class), HCV pseudoparticle infection of Huh7 cells, luciferase 2 days after infection; EC50 expressed as class A/B
row,SMILES,EC50
1,CC(C)(CNC(=O)C(=O)Nc1ccc2ncoc2c1)CNC(=O)c1ccc(Nc2nc(NC3(c4ccc(Cl)cc4)CC3)nc(OCC(F)(F)F)n2)cc1 [Compound 1567],0.01 to 10 nM
2,COC(=O)[C@H](CCNC(=O)C(=O)NC1CCN(C(=O)OC(C)(C)C)CC1)NC(=O)c1ccc(Nc2nc(NC3(c4ccc(Cl)cc4)CC3)nc(OCC(F)(F)F)n2)cc1 [Compound 1101],0.01 to 10 nM
3,CC(C)(CNC(=O)C(=O)Nc1ccc(CCC(=O)O)cc1)CNC(=O)c1ccc(Nc2nc(NC3(c4ccc(Cl)cc4)CC3)nc(OCC(F)(F)F)n2)cc1 [Compound 1483],0.01 to 10 nM
4,O=C(NCC[C@H](NC(=O)c1ccc(Nc2nc(NC3(c4ccc(Cl)cc4)CC3)nc(OCC(F)(F)F)n2)cc1)C(=O)O)C(=O)NCC1(c2ccccc2)CC1 [Compound 1421],0.01 to 10 nM
5,COC(=O)[C@H](CNC(=O)C(=O)NC1CCCCC1c1ccccc1)NC(=O)c1ccc(Nc2nc(NC3(c4ccc(Cl)cc4)CC3)nc(OCC(F)(F)F)n2)cc1 (some centres unmarked) [Compound 1305],0.01 to 10 nM
6,CC(C)(CNC(=O)C(=O)Nc1ccc(-c2cccc(C(=O)O)c2)cc1)CNC(=O)c1ccc(Nc2nc(NC3(c4ccc(Cl)cc4)CC3)nc(OCC(F)(F)F)n2)cc1 [Compound 1543],0.01 to 10 nM
7,COC(=O)[C@@H](CCNC(=O)C(=O)NCC1(c2ccccc2)CC1)NC(=O)c1ccc(Nc2nc(NC3(c4ccc(Cl)cc4)CC3)nc(OCC(F)(F)F)n2)cc1 [Compound 1378],0.01 to 10 nM
8,O=C(NCCc1ccccc1)C(=O)NCC[C@H](NC(=O)c1ccc(Nc2nc(NC3(c4ccc(Cl)cc4)CC3)nc(OCC(F)(F)F)n2)cc1)C(=O)O [Compound 1328],0.01 to 10 nM
9,COC(=O)[C@H](CNC(=O)C(=O)NC1(CC(C)C)CC1)NC(=O)c1ccc(Nc2nc(NC3(c4ccc(Cl)cc4)CC3)nc(OCC(F)(F)F)n2)cc1 [Compound 1058],0.01 to 10 nM
10,COC(=O)[C@H](CCNC(=O)C(=O)Nc1ccn(C)n1)NC(=O)c1ccc(Nc2nc(NC3(c4ccc(Cl)cc4)CC3)nc(OCC(F)(F)F)n2)cc1 [Compound 1221],0.01 to 10 nM
11,COC(=O)[C@H](CNC(=O)C(=O)Nc1cc[nH]n1)NC(=O)c1ccc(Nc2nc(NC3(c4ccc(Cl)cc4)CC3)nc(OCC(F)(F)F)n2)cc1 [Compound 1245],0.01 to 10 nM
12,O=C(NCC[C@H](NC(=O)c1ccc(Nc2nc(NC3(c4ccc(Cl)cc4)CC3)nc(OCC(F)(F)F)n2)cc1)C(=O)O)C(=O)Nc1ccncc1 [Compound 1278],0.01 to 10 nM
13,CC(C)(CNC(=O)C(=O)Nc1ccc(Oc2nn[nH]n2)cc1)CNC(=O)c1ccc(Nc2nc(NC3(c4ccc(Cl)cc4)CC3)nc(OCC(F)(F)F)n2)cc1 [Compound 1490],0.01 to 10 nM
14,COC(=O)[C@H](CCNC(=O)C(=O)NCCc1cccc(OC)c1)NC(=O)c1ccc(Nc2nc(NC3(c4ccc(Cl)cc4)CC3)nc(OCC(F)(F)F)n2)cc1 [Compound 1309],0.01 to 10 nM
15,COC(=O)[C@H](CNC(=O)C(=O)NCCc1cccc(OC)c1)NC(=O)c1ccc(Nc2nc(NC3(c4ccc(Cl)cc4)CC3)nc(OCC(F)(F)F)n2)cc1 [Compound 1286],0.01 to 10 nM
16,CCc1ccc(NC(=O)C(=O)NCC(C)(C)CNC(=O)c2ccc(Nc3nc(NC4(c5ccc(Cl)cc5)CC4)nc(OCC(F)(F)F)n3)cc2)cc1 [Compound 1583],0.01 to 10 nM
17,COC(=O)[C@H](CNC(=O)C(=O)NCCn1cncn1)NC(=O)c1ccc(Nc2nc(NC3(c4ccc(Cl)cc4)CC3)nc(OCC(F)(F)F)n2)cc1 [Compound 1298],0.01 to 10 nM
18,O=C1CC(NC(=O)C(=O)NCC[C@H](NC(=O)c2ccc(Nc3nc(NC4(c5ccc(Cl)cc5)CC4)nc(OCC(F)(F)F)n3)cc2)C(=O)O)CCN1 (some centres unmarked) [Compound 1116],10 to 1000 nM
19,CC(C)(CNC(=O)C(=O)N1CCCCC1)CNC(=O)c1ccc(Nc2nc(NC3(c4ccc(Cl)cc4)CC3)nc(OCC(F)(F)F)n2)cc1 [Compound 1550],0.01 to 10 nM
20,COC(=O)[C@H](CNC(=O)C(=O)N(C)c1ccccc1)NC(=O)c1ccc(Nc2nc(NC3(c4ccc(Cl)cc4)CC3)nc(OCC(F)(F)F)n2)cc1 [Compound 1257],0.01 to 10 nM

# Same assay, conditions: Hepatitis C virus, Huh-7, 48 h, read-out: Activity (EC50 class), HCV pseudoparticles, Huh7 cells, luciferase 2 days after infection; average of duplicates
row,SMILES,EC50
1,CC(C)(CNC(=O)C(=O)Nc1ccc(C#N)cc1)CNC(=O)c1ccc(Nc2nc(NC3(c4ccc(Cl)cc4)CC3)nc(OCc3ccc(OC(F)(F)F)cc3)n2)cc1 [Compound 3852],0.01 to 10 nM
2,NC(=O)c1cccc(NC(=O)C(=O)NCC[C@H](NC(=O)c2ccc(Nc3nc(NC4(c5ccc(Cl)cc5)CC4)nc(OCC(F)(F)F)n3)cc2)C(=O)O)c1 [Compound 3615],0.01 to 10 nM
3,Cn1nnnc1-c1cccc(NC(=O)C(=O)NC[C@H](NC(=O)c2ccc(Nc3nc(NC4(c5ccc(Cl)cc5)CC4)nc(OCC(F)(F)F)n3)cc2)C(=O)Cl)c1 [Compound 3786],0.01 to 10 nM
4,COC(=O)[C@H](CCNC(=O)C(=O)Nc1cccc(-c2nnnn2C)c1)NC(=O)c1ccc(Nc2nc(NC3(c4ccc(Cl)cc4)CC3)nc(OCC(F)(F)F)n2)cc1 [Compound 3607],0.01 to 10 nM
5,O=C(NCC[C@H](NC(=O)c1ccc(Nc2nc(NC3(c4ccc(Cl)cc4)CC3)nc(OCC(F)(F)F)n2)cc1)C(=O)O)C(=O)Nc1cccc(CN2CCCC2)c1 [Compound 3647],0.01 to 10 nM
6,Cc1ccc(COc2nc(Nc3ccc(C(=O)NCC(C)(C)CNC(=O)C(=O)Nc4ccc(C)cc4)cc3)nc(NC3(c4ccc(Cl)cc4)CC3)n2)cc1 [Compound 3848],0.01 to 10 nM
7,CC(C)(CNC(=O)C(=O)Nc1nc2ccc(O)cc2s1)CNC(=O)c1ccc(Nc2nc(NC3(c4ccc(Cl)cc4)CC3)nc(OCC(F)(F)F)n2)cc1F [Compound 3676],0.01 to 10 nM

# Same assay, conditions: Hepatitis C virus, Huh-7, read-out: Activity (EC50 class), HCV pseudoparticles (genotype 1a, H77C) in Huh7 cells; EC50 expressed as class A/B
row,SMILES,EC50
1,O=C(NCC[C@H](NC(=O)c1ccc(Nc2nc(NC3(c4ccc(Cl)cc4)CC3)nc(OCC(F)(F)F)n2)cc1)C(=O)O)C(=O)Nc1ccc(-n2cnc(Cl)c2Cl)cc1 [Compound 3225],10 to 1000 nM
2,CN(CCCNC(=O)c1ccc(Nc2nc(NC3(c4ccc(Cl)cc4)CC3)nc(OCC(F)(F)F)n2)cc1)C(=O)C(=O)NCc1ccc(F)cc1 [Compound 3444],0.01 to 10 nM
3,O=C(NCC(O)CNC(=O)c1ccc(Nc2nc(NC3(c4ccc(Cl)cc4)CC3)nc(OCC(F)(F)F)n2)cc1)C(=O)Nc1ccccc1 (centres unmarked) [Compound 3460],0.01 to 10 nM
4,CC(CNC(=O)C(N)=O)CNC(=O)c1ccc(Nc2nc(NC3(c4ccc(Cl)cc4)CC3)nc(OCC(F)(F)F)n2)cc1 (centres unmarked) [Compound 3345],0.01 to 10 nM
5,Cc1ccc(NC(=O)C(=O)NCC(C)CNC(=O)c2ccc(Nc3nc(NC4(c5ccc(Cl)cc5)CC4)nc(OCC(F)(F)F)n3)cc2)cc1 (centres unmarked) [Compound 3353],0.01 to 10 nM
6,COC(=O)[C@H](CNC(=O)C(=O)Nc1ccc(-c2ccccc2C)cc1)NC(=O)c1ccc(Nc2nc(NC3(c4ccc(Cl)cc4)CC3)nc(OCC(F)(F)F)n2)cc1 [Compound 3187],0.01 to 10 nM
7,COC(=O)[C@H](CNC(=O)C(=O)Nc1ccc(Cn2ccnc2)cc1)NC(=O)c1ccc(Nc2nc(NC3(c4ccc(Cl)cc4)CC3)nc(OCC(F)(F)F)n2)cc1 [Compound 3202],0.01 to 10 nM
8,Cc1nc(-c2ccc(NC(=O)C(=O)NC[C@H](NC(=O)c3ccc(Nc4nc(NC5(c6ccc(Cl)cc6)CC5)nc(OCC(F)(F)F)n4)cc3)C(=O)O)cc2)cs1 [Compound 3275],0.01 to 10 nM
9,NC(=O)NCc1ccc(NC(=O)C(=O)NCCC(NC(=O)c2ccc(Nc3nc(NC4(c5ccc(Cl)cc5)CC4)nc(OCC(F)(F)F)n3)cc2)C(=O)O)cc1 (centres unmarked) [Compound 3535],0.01 to 10 nM
10,COC(=O)[C@H](CCNC(=O)C(=O)Nc1ccc(Cn2ccnc2)cc1)NC(=O)c1ccc(Nc2nc(NC3(c4ccc(Cl)cc4)CC3)nc(OCC(F)(F)F)n2)cc1 [Compound 3319],0.01 to 10 nM
11,CC(C)(CNC(=O)C(=O)NCc1cccc(Cl)c1)CNC(=O)c1ccc(Nc2nc(NC3(c4ccc(Cl)cc4)CC3)nc(OCC(F)(F)F)n2)cc1 [Compound 3020],0.01 to 10 nM
12,CC(C)(CNC(=O)C(=O)Nc1ccc(Cl)cc1F)CNC(=O)c1ccc(Nc2nc(NC3(c4ccc(Cl)cc4)CC3)nc(OCC(F)(F)F)n2)cc1 [Compound 3452],0.01 to 10 nM
13,O=C(NCC[C@H](NC(=O)c1ccc(Nc2nc(NC3(c4ccc(Cl)cc4)CC3)nc(OCC(F)(F)F)n2)cc1)C(=O)O)C(=O)Nc1ccc(-n2ccc(C(F)(F)F)n2)cc1 [Compound 3228],0.01 to 10 nM
14,O=C(NCc1ccc(F)cc1)C(=O)N1CCCC(CNC(=O)c2ccc(Nc3nc(NC4(c5ccc(Cl)cc5)CC4)nc(OCC(F)(F)F)n3)cc2)C1 (centres unmarked) [Compound 3483],0.01 to 10 nM
15,COC(=O)[C@H](CCNC(=O)C(=O)Nc1ccc(CCO)cc1)NC(=O)c1ccc(Nc2nc(NC3(c4ccc(Cl)cc4)CC3)nc(OCC(F)(F)F)n2)cc1 [Compound 3218],0.01 to 10 nM
16,CN(CCCN(C)C(=O)c1ccc(Nc2nc(NC3(c4ccc(Cl)cc4)CC3)nc(OCC(F)(F)F)n2)cc1)C(=O)C(=O)NC1CCCCC1 [Compound 3429],0.01 to 10 nM
17,Cc1nc(C(F)(F)F)ccc1NC(=O)C(=O)NCC(C)(C)CNC(=O)c1ccc(Nc2nc(NC3(c4ccc(Cl)cc4)CC3)nc(OCC(F)(F)F)n2)cc1 [Compound 3249],0.01 to 10 nM
18,Cc1cc(NC(=O)C(=O)NCC(C)CNC(=O)c2ccc(Nc3nc(NC4(c5ccc(Cl)cc5)CC4)nc(OCC(F)(F)F)n3)cc2)no1 (centres unmarked) [Compound 3334],0.01 to 10 nM
19,CC(C)(CNC(=O)C(=O)NS(=O)(=O)C1CC1)CNC(=O)c1ccc(Nc2nc(NC3(c4ccc(Cl)cc4)CC3)nc(OCC(F)(F)F)n2)cc1 [Compound 3032],0.01 to 10 nM
20,CC(C)CNC(=O)C(=O)N(C)CCCN(C)C(=O)c1ccc(Nc2nc(NC3(c4ccc(Cl)cc4)CC3)nc(OCC(F)(F)F)n2)cc1 [Compound 3431],0.01 to 10 nM
21,CN(CCCN(C)C(=O)c1ccc(Nc2nc(NC3(c4ccc(Cl)cc4)CC3)nc(OCC(F)(F)F)n2)cc1)C(=O)C(=O)Nc1nccs1 [Compound 3430],0.01 to 10 nM
